The values that follow come from patent US5216142A, “Anti-virals” (Efamol Holdings plc, priority 1989, dated 1993).

Series [1] concerns herpes simplex virus Type I (HSV I). Put plainly: Inhibition of virus replication (plaque assay, BHK-21 cells). The conditions noted are these: for log reduction at 0.1 µg/mL: 0.1 mg/l. The class given is cell-based, Type 1, Troisbel strain. As for the experimental part: 1. Mono-layers of baby hamster kidney cells (BHK-21) are prepared in Petri dishes containing ETC medium (Eagle's minimal essential medium +10% tryptose phosphate broth +10% new born calf serum).
2. After incubation the medium is poured off to leave the layer of cells attached to the Petri dish. A solution containing virus, specifically herpes simplex virus Type I (HSV I) for example, in ETC medium is then added to the dish and incubated with intermittent rocking for one hour to allow the virus to adsorb to the cells of the mono-layer. Unadsorbed virus is then removed by pouring off the virus-containing medium and washing twice with new sterile medium. Then new medium is added to each Petri dish. At this stage various concentrations of drug can be added to the medium.
3. […] First the dishes are frozen to -70° C. and thawed to disrupt the mono-layer and break up the cells. Then the medium and the disrupted cells are transferred to bijou bottles and sonicated to break down the cells completely and to release all the virus particles the cells contain. The sonicated medium is then diluted with fresh sterile ETC medium to give concentrations of the original Petri dish fluid of 10^-2, 10^-4, 10^-6 and 10^-8.
4. The number of virus particles (plaque forming units) in the dilutions is then assayed. A standard number of BHK cells (usually 8×10^6) is added to 2 ml of the diluted solutions and incubated for one hour, with cautious, gentle shaking, and 8 ml of Eagle's minimal essential medium +2% new born calf serum + carboxymethyl cellulose is then added to the cell suspension. This medium has gelling properties which prevent spreading of the virus through the medium and which encourage the formation of discrete plaques in cell mono-layers. The medium from each dilution is then dispensed into Petri dishes and incubated for two to three days.
5. The number of plaques formed is then counted and the amount of active virus expressed as the number of plaque forming units (pfus) as follows. The medium is poured off and the cell mono-layer is fixed using 10% formol saline and stained with dilute carbol fuchsin. The number of plaques in each Petri dish is counted. Based on the dilutions, the number of plaque forming virus particles in the original solutions is calculated.
In the Table, the figures are the concentration of viral particles in pfu/ml present in the cells + medium at the end of the replication stage (3).

Series [2] concerns LAV-2ROD. Put plainly: Anti-HIV activity assay, LAV-2ROD (MT-4 cells, MTT method). The class given is cell-based. Conditions: for Selectivity index (SI): CD50/ED50, LAV-2ROD; for EC50: MT4, 120 h, MT-4 cells, five days, LAV-2ROD, read-out: ED50 (50% effective dose). As for the experimental part: (§1) Results in relation to HIV virus were obtained by the method of Pauwels et al, Journal of Virological Methods 20, 309 to 321 (1988), as follows:
(§2) MT-4 cells (2.5×10^4 /well) were infected with HIV (100 CCID50) and incubated in the presence of varying concentrations of the test compounds (added immediately after virus infection). After five days incubation at 37° C. in a CO2 incubator, the number of viable cells was assessed by the MTT (tetrazolium) method. Anti-viral activity and cytotoxicity of the compounds are expressed as ED50 (50% effective dose) and CD50 (50% cytotoxic dose), respectively. SI (selectivity index=CD50 /ED50.
(§3) These are given in Table 8 and Table 9 below in relation to HTLV-IIIB and LAV-2ROD viruses.

In series [3] the test system is herpes simplex virus Type I. The series can be described thus: Inactivation of virus (30 minutes incubation, plaque assay). It counts as cell-based, Type 1, Troisbel strain. Conditions: for log reduction at 5 µg/mL: 5 mg/l; for Virus titre (inactivation of virus): 30 minutes, control 5.4 × 10^4 (GLA-alcohol), 4.5 × 10^4 (GLA-AZT). As for the experimental part: 1. A virus solution containing 2×10^5 pfu/ml is prepared in phosphate buffered saline (Dulbecco's A).
2. The compound to be tested is made up in Dulbecco's medium A in a suitable range of dilutions.
3. Equal volumes of the virus and drug solution are mixed together. Control solutions without drug are also used.
4. The virus and drug are incubated for an appropriate period of time, in this example, thirty minutes.
5. The numbers of active viral particles in the solution are assayed as in items 4 and 5 under A.
The results are shown below (Table 6). In the Table, the figures are concentrations of viral particles present after incubation of the virus for 30 minutes with solutions of the drugs.

Series [4] has as its system HTLV-IIIB. Put plainly: Anti-HIV activity assay, HTLV-IIIB (MT-4 cells, MTT method). The class given is cell-based. The conditions noted are these: for Selectivity index (SI): CD50/ED50, HTLV-IIIB; for EC50: Human immunodeficiency virus 1, MT4, 120 h, MT-4 cells, five days, HTLV-IIIB, read-out: ED50 (50% effective dose). As for the experimental part:
as §1, §2, §3
Background: Tetrazolium dyes change colour on reduction, which living cells bring about.

Series [5] has as its system MT-4 cells. Put plainly: in vitro. Conditions: human, 120 h. It counts as cell-based. As for the experimental part:
as §1, §2

The nature of series [6]: in vitro. It counts as cell-based. Conditions: human, mt-4 cells, CD50 (50% cytotoxic dose). On the procedure: as §1, §2
The mark [7] stands for this setting: Human alphaherpesvirus 1, BHK-21, 24 h, read-out: Inhibition of viral replication (log10 reduction in virus titre).
Setting [8] is: Human alphaherpesvirus 1, BHK-21, 24 h, 1 mg/l, read-out: Inhibition of viral replication (log10 reduction in virus titre).
The mark [9] stands for this setting: Human alphaherpesvirus 1, 0.5 h, 1 mg/l, read-out: Inactivation of virus (log10 reduction in virus titre).
Where [10] appears, read: Human alphaherpesvirus 1, 0.5 h, read-out: Inactivation of virus (log10 reduction in virus titre).

In brackets after ≈: the same amount, converted by molar mass. Entries after “also recorded” stand apart in the source; their conditions may differ. Where two headings read alike, the source gives them in different places.

On to `CCCCC/C=C\C/C=C\C/C=C\CCCCC(=O)Nc1nc2c(ncn2COCCOC(=O)CCCC/C=C\C/C=C\C/C=C\CCCCC)c(=O)[nH]1` [AK 10, digamma-linolenyl acyclovir], for which the “% in chloroform phase (partition co-efficients, water/chloroform)” value is greater than 99%. The “Inhibition of herpes virus replication (in words)” value (from here on “Inhibition … (in words)”) in series [1] is listed as “very effective”. Further, the log reduction at 0.1 µg/mL in series [1] (setting [7]) turned out to be 0.45. In addition, the log reduction at 0.5 µg/mL in series [1] (Human alphaherpesvirus 1, BHK-21, 24 h, 0.5 mg/l, read-out: Inhibition of viral replication (log10 reduction in virus titre)) was 0.86. Further, the log reduction at 1 µg/mL in series [1] (setting [8]) was determined as 1.13. For the same molecule, the log reduction at 1 µg/mL in series [1] (Human alphaherpesvirus 1, BHK-21, 24 h, 1 mg/liter solution, read-out: Reduction of virus replication, log) was 1. In addition, in series [1] (Human alphaherpesvirus 1, BHK-21, 24 h, 1 mg/liter solution, read-out: Reduction of virus replication, percent), the inhibition at 1 µg/mL amounted to 90%. Further, in series [2], the “Selectivity index (SI)” value was less than 1 and the EC50 was greater than 40 µg/mL. The “Virucidal activity / inactivation of herpes virus (in words)” value (“Virucidal activity / inactivation” below) in series [3] was “virucidal; also recorded: very effective”. The log reduction at 1 µg/mL in series [3] (setting [9]) came out at 0.94. Further, the log reduction at 1 µg/mL in series [3] (Human alphaherpesvirus 1, 0.5 h, 1 mg/liter solution, read-out: Inactivation of virus, log) turned out to be 1. The killing at 1 µg/mL in series [3] (Human alphaherpesvirus 1, 0.5 h, 1 mg/liter solution, read-out: Inactivation of virus, percent) was determined as 90%. Further, the log reduction at 5 µg/mL in series [3] (setting [10]) worked out at 1.54. Besides, in series [4], the “Selectivity index (SI)” value is recorded as less than 1 and the EC50 is greater than 8 µg/mL.

On to `CCCCC/C=C\C/C=C\C/C=C\CCCCC(=O)Nc1nc2c(ncn2COCCO)c(=O)[nH]1` [AK 12], for which, in series [1] (setting [7]), the log reduction at 0.1 µg/mL is 1.9. The results for the log reduction at 1 µg/mL in series [1] (setting [8]) and in series [3] (setting [9]) were 3.9 and 0.6, respectively. In addition, the “Virucidal activity / inactivation” value in series [3] is reported as “virucidal”. In addition, the log reduction at 5 µg/mL in series [3] (setting [10]) amounted to 1.4.

Turning to `CCCCC/C=C\C/C=C\CCCCCCCC(=O)Nc1nc2c(ncn2COCCO)c(=O)[nH]1` [AK 13], in series [1] (setting [7]), the log reduction at 0.1 µg/mL is 2.45. For the same molecule, the log reduction at 1 µg/mL in series [1] (setting [8]) was 4.3; in series [3] (setting [9]) it was 1.3. In addition, the “Virucidal activity / inactivation” value in series [3] is “virucidal”. Also, the log reduction at 5 µg/mL in series [3] (setting [10]) was determined as 1.8.

For the molecule `CCCCC/C=C\C/C=C\C/C=C\CCCCC(=O)OC[C@@H]1C=C[C@H](n2cc(C)c(=O)[nH]c2=O)O1` [AK 14], in series [5], the “CD50 (50% cytotoxic dose)” value worked out at 8.84 µg/mL. Further, in series [6], the CC50 (in general, the concentration giving 50% cytotoxicity) at 120 h was determined as 10.3 µg/mL (≈ 21.2 µM). Further, the “Selectivity index (SI)” value in series [2] turned out to be 110; in series [4] it was 134. For the same molecule, the EC50 in series [2] was 0.08 µg/mL (≈ 0.165 µM); in series [4], 0.076 µg/mL (≈ 0.157 µM).

Regarding `CCCCC/C=C\C/C=C\CCCCCCCC(=O)OC[C@@H]1C=C[C@H](n2cc(C)c(=O)[nH]c2=O)O1` [AK 15], the “CD50 (50% cytotoxic dose)” value in series [5] stood at 24.23 µg/mL. The molecule also registered a CC50 at 120 h in series [6] of 16.5 µg/mL (≈ 33.9 µM). Moreover, in series [2], the “Selectivity index (SI)” value is on record as 378 and the EC50 was 0.064 µg/mL (≈ 0.132 µM). In addition, in series [4], the “Selectivity index (SI)” value was determined as 256 and the EC50 stood at 0.064 µg/mL (≈ 0.132 µM).

Regarding `Cc1cn([C@H]2C=C[C@@H](CO)O2)c(=O)[nH]c1=O` [AK 16, dideoxy-didehydro thymidine, reference compound], the “CD50 (50% cytotoxic dose)” value in series [5] was determined as 46.65 µg/mL. This molecule displayed a CC50 at 120 h in series [6] of 44.4 µg/mL (≈ 198 µM). In series [2], the “Selectivity index (SI)” value was determined as 1196 and the EC50 worked out at 0.039 µg/mL (≈ 0.174 µM). For the same molecule, in series [4], the “Selectivity index (SI)” value came out at 574 and the EC50 stood at 0.077 µg/mL (≈ 0.343 µM).

On to `CCCCC/C=C\C/C=C\C/C=C\CCCCCO` [GLA alcohol, reference compound], for which, in series [1], the “Inhibition … (in words)” value is “no effect at all”. In series [3], the “Virucidal activity / inactivation” value is listed as “able to inactivate the herpes simplex virus”. The “Virus titre (inactivation of virus)” value in series [3] (5 μg/ml) is recorded as 3.0 × 10^3; in series [3] (10 μg/ml), 2.2 × 10^2; in series [3] (25 μg/ml) it was < 1.0 × 10^2.

Turning to `CCCCC/C=C\C/C=C\CCCCCCCC(=O)O` [LA, linoleic acid, reference compound], the “Inhibition … (in words)” value in series [1] is on record as “completely unable to inhibit viral replication”. The “Virucidal activity / inactivation” value in series [3] is listed as “active at concentrations comparable to GLA; also recorded: same effect in inactivating the herpes virus”.
